In patent US8609342B2, “Reporter gene assay method” (Otsuka Pharmaceutical Co., Ltd., priority 2001, dated 2013):

Tests used:
CHO-K1 cells [1] = type: cell-based, hamster
Description: (§1) First, each test substance is dissolved in DMSO to a concentration of 10^−3 M, and the solution was 10-fold diluted stepwise (serial dilution) to give diluted test sample solutions having a test substance concentration of 10^−3 M to 10^−9 M. Then, each diluted sample solution was 100-fold diluted using a solution prepared by adding 5×10^−9 M) of 5α-dehydrotestosterone to DEMEM/F-12 medium (Gibco) (the test substance concentration becoming 10^−5 M to 10^−11 M).
(§2) CHO-K1 cells were developed on a 96-well plate to a size of about 8000 cells/84 μL of medium per well.
(§3) Separately, a solution for transfection was prepared by diluting 1 ng of pZeoSV-2-AR (prepared above in (1)), 50 ng of pIND ARE-B10 (prepared above in (2)) and 4 ng of pcDNA-EGFP (prepared above in (3)) with 6.25 μL of DMEM/F-12 medium and adding 0.15 μL of FuGENE6™ (Roche) to the dilution.
(§4) On the day after the above development, 6 μL/well of the solution for transfection was added to each well for transfection of the cells in each well (the cell culture fluid volume in each well being about 90 μL). Three hours later, each of serial 10-fold dilutions of each test sample (generally 10^−5 M to 10^−11 M) as prepared using the above-prepared medium (DMEM/F-12) supplemented with 5×10^−9 M of 5a-dehydrotestosterone was added in 10 μL portions, and cultivation was continued at room temperature (the final test substance concentrations: 10^−6 M to 10^−12 M).
At 24 hours after addition of the serial dilutions of the test sample, the GFP fluorescence intensity in each well was measured at the excitation wavelength of 485 nm and fluorescence wavelength of 535 nm using Berthord's ARVO.
(§5) In FIGS. 5 and 6, the ordinate denotes the cell survival rate (%) (the relative EGFP fluorescence intensity value at each test substance concentration as determined by taking the EGFP fluorescence intensity value measured without addition of the test substance as 100; shown by curve (1)) as well as the luciferase activity percentage (shown by curve (2)). The abscissa denotes the test substance concentration (M).

androgen receptor = biological target: T1, androgen receptor (Homo sapiens, UniProt P10275); assay: Reporter gene assay for androgen receptor antagonist detection (luciferase activity); type: cell-based; conditions: for antagonistic activity against the androgen receptor (judgment): judged from luciferase activity with EGFP activity as indication of cytotoxicity
T1 construct: expressed in transfected cells; host or cells: CHO-K1 cells, transiently transfected with pZeoSV2-AR, pIND ARE-B10 and pcDNA-EGFP
T1 sequence (P10275 1-920): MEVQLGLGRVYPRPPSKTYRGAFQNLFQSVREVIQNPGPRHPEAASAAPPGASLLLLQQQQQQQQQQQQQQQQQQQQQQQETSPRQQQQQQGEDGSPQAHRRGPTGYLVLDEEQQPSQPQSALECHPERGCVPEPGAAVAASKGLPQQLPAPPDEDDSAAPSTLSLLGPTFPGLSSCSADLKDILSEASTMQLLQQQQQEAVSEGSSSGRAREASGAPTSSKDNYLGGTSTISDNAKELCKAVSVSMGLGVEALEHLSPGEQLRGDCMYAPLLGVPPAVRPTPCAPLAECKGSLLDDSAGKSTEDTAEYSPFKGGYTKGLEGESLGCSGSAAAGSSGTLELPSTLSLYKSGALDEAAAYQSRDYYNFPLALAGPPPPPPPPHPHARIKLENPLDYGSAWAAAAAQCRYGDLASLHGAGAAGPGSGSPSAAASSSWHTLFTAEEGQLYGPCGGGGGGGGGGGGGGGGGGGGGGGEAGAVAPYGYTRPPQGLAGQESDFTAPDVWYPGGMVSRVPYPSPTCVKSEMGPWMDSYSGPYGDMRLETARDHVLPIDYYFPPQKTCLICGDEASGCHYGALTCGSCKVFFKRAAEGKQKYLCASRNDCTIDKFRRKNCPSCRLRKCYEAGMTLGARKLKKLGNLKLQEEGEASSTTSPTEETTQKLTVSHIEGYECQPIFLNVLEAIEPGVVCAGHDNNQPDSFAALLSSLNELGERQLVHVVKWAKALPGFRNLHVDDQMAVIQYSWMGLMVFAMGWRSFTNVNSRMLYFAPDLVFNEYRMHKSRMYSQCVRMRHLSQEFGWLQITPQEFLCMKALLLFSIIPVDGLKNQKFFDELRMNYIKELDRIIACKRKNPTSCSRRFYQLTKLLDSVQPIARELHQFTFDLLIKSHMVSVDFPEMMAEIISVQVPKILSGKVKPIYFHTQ
Description: as §1, §2, §3, §4, §5

CHO-K1 cells [2] = type: cell-based; conditions: Chinese hamster, 24 h
Description: CHO-K1 cells (cells deposited with ATCC) were developed on a 96-well plate (8000 cells/well). On the next day, transfection was carried in each well with 50 ng/well of pGL3-Control (retaining the SV40 promoter and containing the luciferase gene; Promega) and 4 ng/well of pcDNA-EGFP using 0.15 μL of FuGENE6™ (Roche) (at room temperature).
To each well of the cells of the invention as prepared as described above under (4), 3 hours after transfection, DMSO was added to a final concentration of 0.125, 0.25, 1, 2, 4 or 10%.
After 24 hours following the addition of DMSO, the fluorescence intensity of EGFP expressed in each well was measured using Berthord's measuring apparatus ARVO. Immediately thereafter, the luciferase activity was measured using Steady-Glo™ (Promega) as a substrate and using Berthord's measuring apparatus ARVO.
(§6) In FIG. 4, the ordinate denotes the relative survival rate (%) (the relative measurement result value at each DMSO concentration with the measurement result in each test carried out without addition of DMSO being taken as 100), and the abscissa denotes the DMSO concentration (%).

CHO-K1 cells [3] = assay: MTT assay of CHO-K1 cells with pGL3-Control alone, in the presence of DMSO (comparison); type: cell-based, hamster; conditions: 24 hours of culture with DMSO; relative to no DMSO = 100
Description: For comparison, the following MTT assay and AlamarBlue assay were carried out using the respective assay kits. Thus, CHO-K1 cells with pGL3-Control alone introduced therein were used in lieu of the above-prepared cells, DMSO was added to each well to the same concentration as mentioned above and, after 24 hours of culture, the MTT assay was carried out. The MTT measurement was performed as indicated in the manual attached to the product.
as §6

SMILES | cytotoxic effect (CHO-K1 cells [1]) | antagonistic activity against the androgen receptor (judgment) (androgen receptor) | further results
O=[N+]([O-])c1ccc(Oc2c(Cl)cc(Cl)cc2Cl)cc1 [CNP, chloronirophen] | any cytotoxic effect will not manifest itself | has an antagonistic activity against the androgen receptor | 
CC(=O)O[C@]1(C(C)=O)CC[C@H]2[C@@H]3C=C(Cl)C4=CC(=O)[C@@H]5C[C@@H]5[C@]4(C)[C@H]3CC[C@@]21C [cyproterone acetate, Cyproterone acetate] | no cytotoxic effect was observed |  | EGFP activity (cell survival rate) (CHO-K1 cells [1]; Chinese hamster, 24 h): ~100%
CC1(C)CNC(=NN=C(/C=C/c2ccc(C(F)(F)F)cc2)/C=C/c2ccc(C(F)(F)F)cc2)NC1 [hydramethylnone, Hydramethylnone] |  | no antagonistic activity | luciferase activity (androgen receptor; with 5×10^−9 M 5α-dehydrotestosterone, 24 hours after addition of test substance): decreases in luciferase activity were due to cytotoxicity
C[S+](C)[O-] [DMSO, dimethyl sulfoxide] |  |  | DMSO concentration from which decreases in luciferase activity are observed (CHO-K1 cells [2]): about 0.25%; DMSO concentration at which a decrease in MTT activity is first observed (CHO-K1 cells [3]): ≥ 4%
